Assay results reported in ChEMBL document CHEMBL4007458, “1-ethyl-3-(6-methylphenanthridine-8-il) urea modulates TLR3/9 activation and induces selective pro-inflammatory cytokine expression in vitro” (Bioorg Med Chem Lett, 2017).
Activity calls are given as the source filed them. No cut-off for these calls is given here.

Assays:
[1] = Binding affinity to synthetic ODN2216 assessed as negative ICD band around 240 to 340 nm at 3 x 10^5 10^-6mol/dm3 at pH 7 by CD spectroscopic method
HEK293 = assay: Cytotoxicity against HEK293 cells assessed as reduction in cell viability up to 10 uM after 24 hrs by MTT assay; type: cell-based; settings: human, hek293, 24 h
[2] = Binding affinity to synthetic ODN2006 assessed as ratio of fluorescence intensity of compound-ODN complex to fluorescence intensity of compound at 0.01 mol/dm3 at pH 5.7 by fluorescence spectroscopic method
[3] = Binding affinity to synthetic ODN2006 assessed as ratio of fluorescence intensity of compound-ODN complex to fluorescence intensity of compound at 0.01 mol/dm3 at pH 7 by fluorescence spectroscopic method
[4] = molecular target: T1, Toll-like receptor 8 (Homo sapiens) (UniProt Q9NR97); assay: Activation of human TLR8 expressed in HEK293 cells assessed as induction of NF-kB at 0.1 to 5 uM after 18 hrs by luciferase reporter gene assay; type: cell-based
T1 sequence (whole entry): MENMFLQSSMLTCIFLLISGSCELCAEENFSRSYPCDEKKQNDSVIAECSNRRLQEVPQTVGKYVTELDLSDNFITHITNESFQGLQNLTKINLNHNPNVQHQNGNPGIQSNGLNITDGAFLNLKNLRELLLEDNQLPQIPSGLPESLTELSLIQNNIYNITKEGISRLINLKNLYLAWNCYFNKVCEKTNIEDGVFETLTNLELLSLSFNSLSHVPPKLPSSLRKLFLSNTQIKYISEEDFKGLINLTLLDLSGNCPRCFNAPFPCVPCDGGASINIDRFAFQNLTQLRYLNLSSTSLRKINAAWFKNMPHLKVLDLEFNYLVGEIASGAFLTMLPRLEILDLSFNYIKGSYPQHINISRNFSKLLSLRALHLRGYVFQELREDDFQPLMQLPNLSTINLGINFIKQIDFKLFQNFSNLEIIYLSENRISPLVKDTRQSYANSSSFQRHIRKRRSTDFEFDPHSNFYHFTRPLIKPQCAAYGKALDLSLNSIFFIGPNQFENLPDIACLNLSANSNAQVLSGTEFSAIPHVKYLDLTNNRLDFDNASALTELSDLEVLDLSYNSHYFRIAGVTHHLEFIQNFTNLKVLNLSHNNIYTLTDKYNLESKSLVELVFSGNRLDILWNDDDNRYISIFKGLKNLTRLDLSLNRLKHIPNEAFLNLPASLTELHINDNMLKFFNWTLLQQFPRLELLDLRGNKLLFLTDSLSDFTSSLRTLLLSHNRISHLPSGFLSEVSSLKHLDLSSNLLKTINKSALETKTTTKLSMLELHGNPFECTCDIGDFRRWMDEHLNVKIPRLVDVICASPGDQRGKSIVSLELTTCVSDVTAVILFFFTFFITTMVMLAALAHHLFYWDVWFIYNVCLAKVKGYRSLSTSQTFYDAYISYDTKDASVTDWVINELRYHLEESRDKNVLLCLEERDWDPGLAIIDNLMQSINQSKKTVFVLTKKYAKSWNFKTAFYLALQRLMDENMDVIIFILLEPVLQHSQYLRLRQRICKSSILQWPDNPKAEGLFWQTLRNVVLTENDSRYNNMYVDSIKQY

[5] = molecular target: T2, Toll-like receptor 9 (Homo sapiens) (UniProt Q9NR96); assay: Inhibition of human TLR9 activation expressed in HEK293 cells assessed as reduction in ODN2006-induced NF-kB activation up to 5 uM after 18 hrs by luciferase reporter gene assay; type: cell-based
T2 sequence (whole entry): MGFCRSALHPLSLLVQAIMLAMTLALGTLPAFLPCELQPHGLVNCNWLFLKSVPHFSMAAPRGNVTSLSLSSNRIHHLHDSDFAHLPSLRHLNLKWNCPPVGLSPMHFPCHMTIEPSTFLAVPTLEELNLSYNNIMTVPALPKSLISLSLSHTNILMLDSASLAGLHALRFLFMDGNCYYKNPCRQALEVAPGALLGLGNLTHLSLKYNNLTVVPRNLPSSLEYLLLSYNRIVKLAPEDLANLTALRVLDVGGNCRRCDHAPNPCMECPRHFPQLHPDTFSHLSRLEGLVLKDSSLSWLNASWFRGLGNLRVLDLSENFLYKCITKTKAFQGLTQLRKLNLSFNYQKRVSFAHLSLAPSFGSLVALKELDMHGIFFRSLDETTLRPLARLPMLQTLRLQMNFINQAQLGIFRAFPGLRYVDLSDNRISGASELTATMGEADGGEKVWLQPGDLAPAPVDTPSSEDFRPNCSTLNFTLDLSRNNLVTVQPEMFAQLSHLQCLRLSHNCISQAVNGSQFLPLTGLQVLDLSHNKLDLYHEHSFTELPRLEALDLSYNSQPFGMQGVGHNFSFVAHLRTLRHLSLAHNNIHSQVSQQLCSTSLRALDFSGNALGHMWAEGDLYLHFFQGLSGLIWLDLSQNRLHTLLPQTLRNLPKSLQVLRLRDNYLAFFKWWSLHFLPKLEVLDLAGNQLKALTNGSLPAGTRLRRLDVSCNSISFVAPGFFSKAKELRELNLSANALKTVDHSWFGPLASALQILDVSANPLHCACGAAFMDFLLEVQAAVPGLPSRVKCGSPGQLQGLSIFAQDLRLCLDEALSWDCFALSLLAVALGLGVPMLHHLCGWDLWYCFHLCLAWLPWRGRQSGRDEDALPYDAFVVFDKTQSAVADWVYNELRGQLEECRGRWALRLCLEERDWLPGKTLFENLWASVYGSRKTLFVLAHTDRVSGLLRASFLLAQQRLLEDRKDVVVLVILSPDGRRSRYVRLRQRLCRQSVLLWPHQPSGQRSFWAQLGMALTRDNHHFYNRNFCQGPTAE

[6] = molecular target: Toll-like receptor 3 (Homo sapiens) (UniProt O15455); assay: Inhibition of TLR3 in human PBMC assessed as reduction in poly(I:C)-stimulated IL-6 expression at 1 uM by ELISA relative to control
PBMC [7] = assay: Cytotoxicity against human PBMC assessed as reduction in cell viability up to 10 uM after 24 hrs by MTT assay; type: cell-based
PBMC [8] = assay: Immunomodulatory activity in human PBMC assessed as induction of IL-8 secretion after 24 hrs by ELISA; type: functional, cell-based
[9] = molecular target: Toll-like receptor 3 (Homo sapiens) (UniProt O15455); assay: Inhibition of human TLR3 expressed in HEK293 cells assessed as reduction in poly(I:C)-induced NF-kB activation up to 5 uM after 18 hrs by luciferase reporter gene assay; type: cell-based
[10] = Binding affinity to synthetic ODN2006 assessed as ICD band around 300 nm at 3 x 10^5 10^-6mol/dm3 at pH 5.7 by CD spectroscopic method
[11] = molecular target: T3, Toll-like receptor 7 (Homo sapiens) (UniProt Q9NYK1); assay: Activation of human TLR7 expressed in HEK293 cells assessed as induction of NF-kB at 0.1 to 5 uM after 18 hrs by luciferase reporter gene assay; type: cell-based
T3 sequence (whole entry): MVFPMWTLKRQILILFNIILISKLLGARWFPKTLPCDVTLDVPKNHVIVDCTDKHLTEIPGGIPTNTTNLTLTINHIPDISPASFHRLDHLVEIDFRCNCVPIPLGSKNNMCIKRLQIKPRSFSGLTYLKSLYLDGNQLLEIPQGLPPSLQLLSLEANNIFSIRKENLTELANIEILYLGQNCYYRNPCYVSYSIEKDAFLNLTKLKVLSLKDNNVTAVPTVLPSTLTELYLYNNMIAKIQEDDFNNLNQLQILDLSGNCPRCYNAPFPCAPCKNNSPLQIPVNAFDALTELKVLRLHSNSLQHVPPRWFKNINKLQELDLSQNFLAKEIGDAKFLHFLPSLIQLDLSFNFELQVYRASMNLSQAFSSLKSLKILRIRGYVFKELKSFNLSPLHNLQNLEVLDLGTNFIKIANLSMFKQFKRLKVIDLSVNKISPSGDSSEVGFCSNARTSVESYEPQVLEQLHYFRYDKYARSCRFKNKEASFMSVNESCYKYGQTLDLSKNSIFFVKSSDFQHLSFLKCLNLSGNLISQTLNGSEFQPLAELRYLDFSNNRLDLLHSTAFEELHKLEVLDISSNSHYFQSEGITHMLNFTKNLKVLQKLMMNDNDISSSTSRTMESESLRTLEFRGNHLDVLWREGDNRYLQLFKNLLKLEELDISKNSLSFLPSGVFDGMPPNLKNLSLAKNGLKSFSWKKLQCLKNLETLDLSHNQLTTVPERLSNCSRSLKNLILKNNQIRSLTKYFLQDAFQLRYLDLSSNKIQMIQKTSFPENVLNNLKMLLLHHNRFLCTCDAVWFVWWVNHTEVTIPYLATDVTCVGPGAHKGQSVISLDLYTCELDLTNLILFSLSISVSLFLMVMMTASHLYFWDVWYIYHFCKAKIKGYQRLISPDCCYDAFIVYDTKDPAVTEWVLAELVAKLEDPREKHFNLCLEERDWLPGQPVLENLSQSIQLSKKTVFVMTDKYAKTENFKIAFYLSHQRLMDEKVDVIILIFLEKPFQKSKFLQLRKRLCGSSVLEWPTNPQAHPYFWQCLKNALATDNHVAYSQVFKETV

[12] = molecular target: Toll-like receptor 3 (Homo sapiens) (UniProt O15455); assay: Inhibition of TLR3 in human PBMC assessed as reduction in poly(I:C)-stimulated IL-6 expression at 1 to 10 uM by ELISA relative to control
[13] = molecular target: T2, Toll-like receptor 9 (Homo sapiens); assay: Inhibition of TLR9 in PMA-induc ed human THP1 cells assessed as reduction in ODN2216-induced TNFalpha by ELISA
[14] = molecular target: T2, Toll-like receptor 9 (Homo sapiens); assay: Inhibition of TLR9 in human PBMC assessed as reduction in ODN2006-stimulated IL-8 expression at 1 to 10 uM by ELISA
[15] = Binding affinity to synthetic ODN2006 assessed as ICD band around 301 nm at 3 x 10^5 10^-6mol/dm3 at pH 7 by CD spectroscopic method
PBMC [16] = assay: Immunomodulatory activity in human PBMC assessed as induction of IL-6 secretion at 10 uM after 24 hrs by ELISA; type: functional, cell-based
PBMC [17] = assay: Immunomodulatory activity in human PBMC assessed as induction of IL-1beta secretion at 10 uM after 24 hrs by ELISA; type: functional, cell-based
THP-1 = assay: Cytotoxicity against human THP1 cells assessed as reduction in cell viability up to 10 uM after 24 hrs by MTT assay; type: cell-based; settings: thp-1, 24 h
[18] = Binding affinity to synthetic ODN2216 at 0.01 mol/dm3 at pH 5.7 by fluorescence spectroscopic method
PBMC [19] = assay: Immunomodulatory activity in human PBMC assessed as induction of TNFalpha secretion at 10 uM after 24 hrs by ELISA; type: functional, cell-based
[20] = molecular target: T2, Toll-like receptor 9 (Homo sapiens); assay: Inhibition of TLR9 in human PBMC assessed as reduction in ODN2216-stimulated IFNalpha expression at 1 to 10 uM by ELISA
[21] = Solubility of the compound in water; type: physicochemical; settings: buffer
[22] = Binding affinity to synthetic ODN2006 at 0.01 mol/dm3 at pH 7 by fluorescence spectroscopic method
[23] = Binding affinity to synthetic ODN2006 at 0.01 mol/dm3 at pH 5.7 by fluorescence spectroscopic method
PBMC [24] = assay: Immunomodulatory activity in human PBMC assessed as induction of INFalpha secretion at 10 uM after 24 hrs by ELISA; type: functional, cell-based
[25] = Binding affinity to synthetic ODN2216 assessed as negative ICD band around 240 to 340 nm at 3 x 10^5 10^-6mol/dm3 at pH 5.7 by CD spectroscopic method
[26] = Binding affinity to synthetic ODN2216 assessed as ratio of fluorescence intensity of compound-ODN complex to fluorescence intensity of compound at 0.01 mol/dm3 at pH 5.7 by fluorescence spectroscopic method
[27] = molecular target: T1, Toll-like receptor 8 (Homo sapiens); assay: Activation of human TLR8 expressed in HEK293 cells assessed as induction of NF-kB after 18 hrs by luciferase reporter gene assay; type: cell-based
[28] = molecular target: T3, Toll-like receptor 7 (Homo sapiens); assay: Activation of human TLR7 expressed in HEK293 cell assessed as induction of NF-kB after 18 hrs by luciferase reporter gene assay; type: cell-based
PBMC [29] = assay: Immunomodulatory activity in human PBMC assessed as induction of IL-6 secretion at 16 uM after 24 hrs by ELISA; type: functional, cell-based
PBMC [30] = assay: Immunomodulatory activity in human PBMC assessed as induction of IL-6 secretion at 5 uM after 24 hrs by ELISA; type: functional, cell-based

Toll-like receptor 3 (Homo sapiens), sequence (O15455 whole entry): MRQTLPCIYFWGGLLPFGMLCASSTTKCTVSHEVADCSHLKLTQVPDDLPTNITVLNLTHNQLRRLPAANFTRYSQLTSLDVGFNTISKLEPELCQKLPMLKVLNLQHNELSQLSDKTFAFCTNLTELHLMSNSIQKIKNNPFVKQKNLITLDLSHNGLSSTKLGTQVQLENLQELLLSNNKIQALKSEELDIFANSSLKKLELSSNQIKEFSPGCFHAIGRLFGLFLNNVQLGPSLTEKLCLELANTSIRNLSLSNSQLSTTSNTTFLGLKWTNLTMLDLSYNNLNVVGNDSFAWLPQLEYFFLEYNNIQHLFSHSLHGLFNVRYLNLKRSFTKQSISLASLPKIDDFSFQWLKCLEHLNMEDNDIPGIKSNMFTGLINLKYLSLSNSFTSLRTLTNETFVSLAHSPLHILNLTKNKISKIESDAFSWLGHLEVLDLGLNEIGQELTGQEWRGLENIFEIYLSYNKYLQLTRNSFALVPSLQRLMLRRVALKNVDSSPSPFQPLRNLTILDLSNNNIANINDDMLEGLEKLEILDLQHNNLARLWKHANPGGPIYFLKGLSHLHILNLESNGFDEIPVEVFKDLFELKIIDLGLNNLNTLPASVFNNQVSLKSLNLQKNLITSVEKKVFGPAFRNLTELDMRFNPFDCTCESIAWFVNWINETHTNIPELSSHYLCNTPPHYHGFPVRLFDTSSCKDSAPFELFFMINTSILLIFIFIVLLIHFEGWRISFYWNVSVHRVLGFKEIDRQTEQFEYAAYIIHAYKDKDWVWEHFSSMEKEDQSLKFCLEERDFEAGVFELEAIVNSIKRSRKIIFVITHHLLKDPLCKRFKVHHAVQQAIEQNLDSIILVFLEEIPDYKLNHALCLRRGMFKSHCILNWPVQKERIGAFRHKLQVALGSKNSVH

## CCNC(=O)Nc1ccc2c(c1)c(C)nc1ccccc12
[1]
  Activity: Active
HEK293
  Activity: Non-Toxic
[2]
  Ratio: 0.2
[3]
  Ratio: 0.6
[4]
  Activity: inactive
[5]
  inhibition: Active
[6]
  inhibition: 50%
PBMC [7]
  Activity: Non-Toxic
PBMC [8]
  Activity: Dose-dependent effect
[9]
  inhibition: Active
[10]
  Activity: inactive
[11]
  Activity: inactive
[12]
  inhibition: Active
[13]
  inhibition: Dose-dependent effect
[14]
  inhibition: inactive
[15]
  Activity: Active
PBMC [16]
  Activity: Active
PBMC [17]
  Activity: inactive
THP-1
  Activity: Non-Toxic
[18]
  log Ks: 4.04
PBMC [19]
  Activity: Active
[20]
  inhibition: Active
[21]
  solubility: Insoluble
[22]
  log Ks: 5.4
[23]
  log Ks: 4.5
PBMC [24]
  Activity: inactive
[25]
  Activity: Active
[26]
  Ratio: 0.73

## CCOCc1nc2c(N)nc3ccccc3c2[nH]1
[27]
  Activity: Active
[28]
  Activity: Active

## CCOCc1nc2c(N)nc3ccccc3c2n1CC(C)(C)O
PBMC [29]
  Activity: Active

## CC(C)Cn1cnc2c(N)nc3ccccc3c21
PBMC [30]
  Activity: Active
